pEC50: −log10 of the molar value. ≈ marks a conversion by molar mass, not a printed value.
Tested on: SARS-CoV-2, isolate USA-WA1/2020
Assay: microbe, parasite or virus in culture
Assay type: cell-based
Settings: HeLa-ACE2 SARS-CoV-2 antiviral effect without P-gp inhibitor; maximum measured response of dose series

| SMILES | perc_max_measured |
| --- | --- |
| CC(C)[C@H](Nc1ncnc2[nH]c(-c3cnn(CC(N)=O)c3)cc12)c1ccc2c(c1)S(=O)(=O)CCC2 (single isomer, unassigned) [ASAP-0011428] | 108.399% |

Same assay, conditions: HeLa-ACE2 SARS-CoV-2 antiviral effect without P-gp inhibitor; minimum measured response of dose series

| SMILES | perc_min_measured |
| --- | --- |
| CC(C)[C@H](Nc1ncnc2[nH]c(-c3cnn(CC(N)=O)c3)cc12)c1ccc2c(c1)S(=O)(=O)CCC2 (single isomer, unassigned) [ASAP-0011428] | 92.21% |

Same assay, conditions: HeLa-ACE2 SARS-CoV-2 antiviral effect without P-gp inhibitor; read-out: ec50

| SMILES | pEC50 |
| --- | --- |
| CC(C)[C@H](Nc1ncnc2[nH]c(-c3cnn(CC(N)=O)c3)cc12)c1ccc2c(c1)S(=O)(=O)CCC2 (single isomer, unassigned) [ASAP-0011428] | < 4.70 |

Same assay, conditions: HeLa-ACE2 SARS-CoV-2 antiviral effect without P-gp inhibitor; read-out: ec90

| SMILES | EC90 |
| --- | --- |
| CC(C)[C@H](Nc1ncnc2[nH]c(-c3cnn(CC(N)=O)c3)cc12)c1ccc2c(c1)S(=O)(=O)CCC2 (single isomer, unassigned) [ASAP-0011428] | > 20 µM |

Tested on: not listed separately
Assay: LogD
Settings: pH 7.4; In vitro LogD

| SMILES | logd |
| --- | --- |
| CC(C)[C@H](Nc1ncnc2[nH]c(-c3cnn(CC(N)=O)c3)cc12)c1ccc2c(c1)S(=O)(=O)CCC2 (single isomer, unassigned) [ASAP-0011428] | 2.1 |

Tested on: not listed separately
Assay: in vitro
Settings: human, hela-ace2 cells, 50.0

| SMILES | CC50 at 24 h |
| --- | --- |
| CC(C)[C@H](Nc1ncnc2[nH]c(-c3cnn(CC(N)=O)c3)cc12)c1ccc2c(c1)S(=O)(=O)CCC2 (single isomer, unassigned) [ASAP-0011428] | > 20 µM |

Tested on: SARS-CoV-2
Assay: Antiviral effect in iPSC-derived pneumocyte system
Assay type: cell-based
Settings: iPSC pneumocytes SARS-CoV-2 antiviral effect

| SMILES | pEC50 | EC90 |
| --- | --- | --- |
| CC(C)[C@H](Nc1ncnc2[nH]c(-c3cnn(CC(N)=O)c3)cc12)c1ccc2c(c1)S(=O)(=O)CCC2 (single isomer, unassigned) [ASAP-0011428] | < 4.30 | > 50 µM |

Same assay, conditions: iPSC pneumocytes SARS-CoV-2 antiviral effect; maximum measured response of dose series

| SMILES | perc_max_measured |
| --- | --- |
| CC(C)[C@H](Nc1ncnc2[nH]c(-c3cnn(CC(N)=O)c3)cc12)c1ccc2c(c1)S(=O)(=O)CCC2 (single isomer, unassigned) [ASAP-0011428] | 119.318% |

Same assay, conditions: iPSC pneumocytes SARS-CoV-2 antiviral effect; minimum measured response of dose series

| SMILES | perc_min_measured |
| --- | --- |
| CC(C)[C@H](Nc1ncnc2[nH]c(-c3cnn(CC(N)=O)c3)cc12)c1ccc2c(c1)S(=O)(=O)CCC2 (single isomer, unassigned) [ASAP-0011428] | 70.174% |

Tested on: not listed separately
Assay: Hepatic microsomal stability, HLM
Assay type: in vitro ADME, human
Settings: In vitro human liver microsomal stability

| SMILES | clint | perc_remaining | t_half |
| --- | --- | --- | --- |
| CC(C)[C@H](Nc1ncnc2[nH]c(-c3cnn(CC(N)=O)c3)cc12)c1ccc2c(c1)S(=O)(=O)CCC2 (single isomer, unassigned) [ASAP-0011428] | 240.0 µL/min/mg | 2.0% | 7.0 min |

Same assay, conditions: In vitro human liver microsomal stability; no cofactor

| SMILES | perc_remaining_no_cofactor |
| --- | --- |
| CC(C)[C@H](Nc1ncnc2[nH]c(-c3cnn(CC(N)=O)c3)cc12)c1ccc2c(c1)S(=O)(=O)CCC2 (single isomer, unassigned) [ASAP-0011428] | 115.0% |

Tested on: not listed separately
Assay: Hepatic microsomal stability, MLM
Assay type: in vitro ADME
Settings: In vitro mouse liver microsomal stability

| SMILES | clint | perc_remaining | t_half |
| --- | --- | --- | --- |
| CC(C)[C@H](Nc1ncnc2[nH]c(-c3cnn(CC(N)=O)c3)cc12)c1ccc2c(c1)S(=O)(=O)CCC2 (single isomer, unassigned) [ASAP-0011428] | 39.0 µL/min/mg | 53.0% | 42.6 min |

Same assay, conditions: In vitro mouse liver microsomal stability, no cofactor

| SMILES | perc_remaining_no_cofactor |
| --- | --- |
| CC(C)[C@H](Nc1ncnc2[nH]c(-c3cnn(CC(N)=O)c3)cc12)c1ccc2c(c1)S(=O)(=O)CCC2 (single isomer, unassigned) [ASAP-0011428] | 98.0% |

Tested on: not listed separately
Assay: Permeability Papp (AB) MDR1/MDCKII
Settings: In vitro MDR1-MDCKII permeability, A to B, mean

| SMILES | papp_a_to_b_mean |
| --- | --- |
| CC(C)[C@H](Nc1ncnc2[nH]c(-c3cnn(CC(N)=O)c3)cc12)c1ccc2c(c1)S(=O)(=O)CCC2 (single isomer, unassigned) [ASAP-0011428] | 1.98 ×10⁻⁶ cm/s |

Same assay, conditions: In vitro MDR1-MDCKII permeability, A to B, no inhibitor

| SMILES | papp_a_to_b_mean |
| --- | --- |
| CC(C)[C@H](Nc1ncnc2[nH]c(-c3cnn(CC(N)=O)c3)cc12)c1ccc2c(c1)S(=O)(=O)CCC2 (single isomer, unassigned) [ASAP-0011428] | 0.0832 ×10⁻⁶ cm/s |

Same assay, conditions: In vitro MDR1-MDCKII permeability, B to A, no inhibitor

| SMILES | papp_b_to_a_mean |
| --- | --- |
| CC(C)[C@H](Nc1ncnc2[nH]c(-c3cnn(CC(N)=O)c3)cc12)c1ccc2c(c1)S(=O)(=O)CCC2 (single isomer, unassigned) [ASAP-0011428] | 0.072 ×10⁻⁶ cm/s |

Same assay, conditions: In vitro MDR1-MDCKII permeability, no inhibitor

| SMILES | efflux_ratio |
| --- | --- |
| CC(C)[C@H](Nc1ncnc2[nH]c(-c3cnn(CC(N)=O)c3)cc12)c1ccc2c(c1)S(=O)(=O)CCC2 (single isomer, unassigned) [ASAP-0011428] | 0.9 |

Same assay, conditions: In vitro MDR1-MDCKII permeability, recovery A to B, mean

| SMILES | perc_recovery_a_to_b_mean |
| --- | --- |
| CC(C)[C@H](Nc1ncnc2[nH]c(-c3cnn(CC(N)=O)c3)cc12)c1ccc2c(c1)S(=O)(=O)CCC2 (single isomer, unassigned) [ASAP-0011428] | 85.9% |

Same assay, conditions: In vitro MDR1-MDCKII permeability, recovery A to B, no inhibitor

| SMILES | perc_recovery_a_to_b_mean |
| --- | --- |
| CC(C)[C@H](Nc1ncnc2[nH]c(-c3cnn(CC(N)=O)c3)cc12)c1ccc2c(c1)S(=O)(=O)CCC2 (single isomer, unassigned) [ASAP-0011428] | 65.5% |

Same assay, conditions: In vitro MDR1-MDCKII permeability, recovery B to A, no inhibitor

| SMILES | perc_recovery_b_to_a_mean |
| --- | --- |
| CC(C)[C@H](Nc1ncnc2[nH]c(-c3cnn(CC(N)=O)c3)cc12)c1ccc2c(c1)S(=O)(=O)CCC2 (single isomer, unassigned) [ASAP-0011428] | 72.9% |

Same assay, conditions: MDR1-MDCKII, recovery A to B, with inhibitor Verapamil

| SMILES | perc_recovery_a_to_b_inhibitor_mean |
| --- | --- |
| CC(C)[C@H](Nc1ncnc2[nH]c(-c3cnn(CC(N)=O)c3)cc12)c1ccc2c(c1)S(=O)(=O)CCC2 (single isomer, unassigned) [ASAP-0011428] | 73.2% |

Same assay, conditions: MDR1-MDCKII, recovery B to A, with inhibitor Verapamil

| SMILES | perc_recovery_b_to_a_inhibitor_mean |
| --- | --- |
| CC(C)[C@H](Nc1ncnc2[nH]c(-c3cnn(CC(N)=O)c3)cc12)c1ccc2c(c1)S(=O)(=O)CCC2 (single isomer, unassigned) [ASAP-0011428] | 79.8% |

Tested on: iPSC pneumocytes
Assay: iPSC pneumocytes cytotoxicity
Assay type: cell-based
Settings: not given
From the text: Supplement media-1.zip/Cytotoxicity.csv, table | column: cc10; cc50; perc_min_measured; perc_max_measured

| SMILES | CC50 | cc10 |
| --- | --- | --- |
| CC(C)[C@H](Nc1ncnc2[nH]c(-c3cnn(CC(N)=O)c3)cc12)c1ccc2c(c1)S(=O)(=O)CCC2 (single isomer, unassigned) [ASAP-0011428] | > 50 µM | > 50.0 µM |

Same assay, conditions: highest measured response of the dose series

| SMILES | perc_max_measured |
| --- | --- |
| CC(C)[C@H](Nc1ncnc2[nH]c(-c3cnn(CC(N)=O)c3)cc12)c1ccc2c(c1)S(=O)(=O)CCC2 (single isomer, unassigned) [ASAP-0011428] | 106.229% |

Same assay, conditions: lowest measured response of the dose series

| SMILES | perc_min_measured |
| --- | --- |
| CC(C)[C@H](Nc1ncnc2[nH]c(-c3cnn(CC(N)=O)c3)cc12)c1ccc2c(c1)S(=O)(=O)CCC2 (single isomer, unassigned) [ASAP-0011428] | 92.999% |

Tested on: HeLa-ACE2 cells
Assay: not given
Settings: protocol HeLa-ACE2 cytotoxicity

| SMILES | CC50 | cc10 |
| --- | --- | --- |
| CC(C)[C@H](Nc1ncnc2[nH]c(-c3cnn(CC(N)=O)c3)cc12)c1ccc2c(c1)S(=O)(=O)CCC2 (single isomer, unassigned) [ASAP-0011428] | > 20 µM | > 20.0 µM |

Same assay, conditions: protocol HeLa-ACE2 cytotoxicity; highest measured response of the dose series

| SMILES | perc_max_measured |
| --- | --- |
| CC(C)[C@H](Nc1ncnc2[nH]c(-c3cnn(CC(N)=O)c3)cc12)c1ccc2c(c1)S(=O)(=O)CCC2 (single isomer, unassigned) [ASAP-0011428] | 96.287% |

Same assay, conditions: protocol HeLa-ACE2 cytotoxicity; lowest measured response of the dose series

| SMILES | perc_min_measured |
| --- | --- |
| CC(C)[C@H](Nc1ncnc2[nH]c(-c3cnn(CC(N)=O)c3)cc12)c1ccc2c(c1)S(=O)(=O)CCC2 (single isomer, unassigned) [ASAP-0011428] | 76.492% |

Tested on: not listed separately
Assay: in vitro
Set-up: Cytotoxicity in iPSC-derived pneumocytes, CC50
Settings: human, ipsc-derived pneumocytes; ASAP-0008327-001=ASAP-0011428-001; read-out: 50.0
From the text: Finally, we consider the hypothesis that interferon response triggers ADP-ribosylation, thus profiling the compounds in enhanced and physiologically relevant interferon environments could reveal detectable antiviral effects. […] Furthermore, HeLa-ACE2 cells, and all cancerous cell lines, display defective innate immune response ([1]). As such, we also assess our compound in a primary-like iPSC-derived pneumocyte system (Figure 7C), showing likewise a lack of antiviral activity in this physiologically relevant innate immunity system.

| SMILES | CC50 |
| --- | --- |
| CC(C)[C@H](Nc1ncnc2[nH]c(-c3cnn(CC(N)=O)c3)cc12)c1ccc2c(c1)S(=O)(=O)CCC2 (single isomer, unassigned) [ASAP-0011428] | > 50 µM |

Tested on: not listed separately
Assay: In vitro kinetic solubility
Settings: In vitro kinetic solubility, ph 7.4

| SMILES | solubility_mean |
| --- | --- |
| CC(C)[C@H](Nc1ncnc2[nH]c(-c3cnn(CC(N)=O)c3)cc12)c1ccc2c(c1)S(=O)(=O)CCC2 (single isomer, unassigned) [ASAP-0011428] | 338 µM (≈ 167 µg/mL) |

Reference: paper doi:10.1101/2024.08.19.608619, “Discovery of potent SARS-CoV-2 nsp3 macrodomain inhibitors uncovers lack of translation to cellular antiviral response” (bioRxiv, 2024)
